According to ChEMBL document CHEMBL1127283, “Structure of maesaquinone” (Bioorg Med Chem Lett, 1994):
In brackets after ≈: the same amount, converted by molar mass.

Key:
[1] = test system: HeLa; assay: Compound was tested for its cytotoxicity against HeLa epithelioid cervix carcinoma cells.; assay type: functional, cell-based; settings: Homo sapiens
[2] = target: T1, Polyunsaturated fatty acid 5-lipoxygenase (Homo sapiens) (UniProt P09917); assay: Compound was tested for its inhibitory activity against 5-lipoxygenase
T1 sequence (whole entry): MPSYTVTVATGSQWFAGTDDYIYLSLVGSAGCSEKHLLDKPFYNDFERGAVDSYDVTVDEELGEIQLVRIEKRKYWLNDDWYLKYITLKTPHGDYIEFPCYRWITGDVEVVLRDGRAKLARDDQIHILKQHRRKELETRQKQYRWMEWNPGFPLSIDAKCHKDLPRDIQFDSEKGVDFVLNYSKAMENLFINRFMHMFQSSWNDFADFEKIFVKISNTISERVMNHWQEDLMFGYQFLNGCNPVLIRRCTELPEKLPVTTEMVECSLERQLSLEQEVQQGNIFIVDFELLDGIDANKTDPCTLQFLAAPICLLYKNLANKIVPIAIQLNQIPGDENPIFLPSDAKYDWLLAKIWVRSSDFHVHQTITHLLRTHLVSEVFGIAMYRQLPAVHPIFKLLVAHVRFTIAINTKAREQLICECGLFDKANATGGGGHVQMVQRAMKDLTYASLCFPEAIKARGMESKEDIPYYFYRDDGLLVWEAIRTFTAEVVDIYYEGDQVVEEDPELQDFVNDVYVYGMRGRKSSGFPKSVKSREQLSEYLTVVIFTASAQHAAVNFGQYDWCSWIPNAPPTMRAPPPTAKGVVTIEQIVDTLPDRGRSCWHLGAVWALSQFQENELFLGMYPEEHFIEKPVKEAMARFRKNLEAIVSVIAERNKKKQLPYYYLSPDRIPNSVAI

[3] = test system: BT-20; assay: Compound was tested for its cytotoxicity against BT-20 breast carcinoma cells; assay type: functional, cell-based; settings: Homo sapiens
[4] = test system: HeLa; assay: Compound was tested for its cytotoxicity against HeLa epithelioid cervix carcinoma cells; assay type: functional, cell-based; settings: Homo sapiens

Row | IC90 [2] | Structure (SMILES) | IC50 [1] | IC50 [3] | IC50 [4]
1 | 3000 nM | CCCC/C=C\CCCCCCCCCC1=C(O)C(OC)=CC(=O)C1=O | 1.25 µg/mL (≈ 3.45 µM) | 1.8 µg/mL (≈ 4.97 µM) | –
2 | – | CCCC/C=C\CCCCCCCCCC1=C(O)C(O)=C(C)C(=O)C1=O | – | 1.58 µg/mL (≈ 4.36 µM) | 2.05 µg/mL (≈ 5.66 µM)
